According to US9505735B2, “Compounds for treating infectious diseases” (Whitehead Institute for Biomedical Research, priority 2012, dated 2016):

How the values were obtained:
[1] = tested on: amphotericin B-resistant or fluconazole-resistant C. albicans; assay: Co-culture of mammalian cells and C. albicans: fungal proliferation; type: cell-based; details: 40 μM, 24 hours, serum-containing medium
Description: For co-culture experiments, confluent layers of NIH 3T3 cells were established in 6-well plates. The following day, the medium was replaced with RPMI1640+10% FBS containing the amphotericin-resistant strain CaAmphR at […] colony forming units per ml and 40 μM gepinacin or an equivalent amount of DMSO. Co-cultures were incubated for 24 hours at 37° C. in a micro-isolator box. Images were acquired on a Nikon Eclipse TS100 microscope at 40×.
Having determined the target of gepinacin in fungi, gepinacin's effect on the human ortholog of Gwt1, PIG-W, was examined. To determine if gepinacin remained active under mammalian cell culture conditions cultured fungi were cultured (either an amphotericin B-resistant (FIG. 3a) or fluconazole-resistant (data not shown) isolate of C. albicans) and mammalian cells together with 40 μM gepinacin. […] PIG-W (and GPI anchor biosynthesis) is not essential for mammalian cells in culture.

BIP level in K562 cells = assay: BIP immunoblot in mammalian cells; type: cell-based, human; details: 20 μM, 28 hour
Description: Immunoblot of lysates prepared from human leukemia cells (K562) using an antibody to BIP after 28 hour exposure to tunicamycin (1 μg ml^−1), gepinacin (20 μM) or solvent vehicle (DMSO, 0.1%). Betaactin was blotted as a loading control.

Gas1 and CPY maturation = assay: Protein trafficking analysis (immunoblot of reporter proteins); type: cell-based, S. cerevisiae; details: 10 μM, 1 hour
Description: (A) Immunoblots of lysates prepared from S. cerevisiae treated with gepinacin showing GPI-anchor-selective impairment of protein maturation. The unprocessed (u), precursor (p), and mature (m) forms of the reporter proteins are indicated. The identity of the tagged reporter proteins (top of panel) and the antibodies used for their detection (bottom of panel) are also indicated. Treatment conditions are DMSO (0.05%), gepinacin (GPN, 10 μM) or tunicamycin (Tun, 10 μM). The same lysate was used for both blots. […] GFP expression was monitored by flow cytometry. (C) Anti-fungal susceptibility testing of strains deleted for IRE1 (activator of the UPR) or HAC1 (effector of the UPR) showing their increased sensitivity to gepinacin.
HA-tagged GAS1 was expressed in strain BY4741 CPY-GFP (Yeast GFP collection (Huh, et al. (2003) Nature 425, 686-691) under control of its own promoter using plasmid pCM-HA-GAS1. This construct was created as previously reported except in a gateway plasmid backbone (Fujita, et al. (2006) Mol Biol Cell 17, 834-850). To assess effects on trafficking, strains were incubated for 1 hour at 30° C. with test compounds. Total cellular protein (5 μg) was separated by electrophoresis (Invitrogen 8% gels) and transferred to nitrocellulose membranes. Blots were hybridized with antibodies against HA (Covance), GFP (Roche), or CPY (Invitrogen). Sizes for the various post-translationally modified products of Gas1HA2 and CPY have been previously reported (Fujita, et al. (2006) Mol Biol Cell 17, 834-850). CPY-GFP was used to facilitate discrimination of CPY processing steps because GFP is cleaved from CPY in the yeast vacuole. The experiment, however, was also performed with untagged CPY with the same results.

COc1ccc(NC(=O)COc2cccc(OCC(C)C)c2)cc1 [gepinacin] was tested, and the “fungal proliferation in co-culture” value [1] was “profound inhibition of proliferation”, the “ER function monitored by induction of BIP” value (BIP level in K562 cells) was “did not perturb ER function” and the “CPY (not GPI-anchored) processing” value (Gas1 and CPY maturation) was “identical”. For the same compound, the “Gas1 (GPI-anchored) maturation: mature versus precursor form” value (Gas1 and CPY maturation) was “inverted”.
